Results published in patent publication US11207312B2, “Metallo-beta-lactamase inhibitors and methods of use thereof” (priority 2017, dated 2021).

What was measured:
[1] = tested on: P. aeruginosa MB9799 (efflux-, IMP-1 plasmid); type: cell-based, Pseudomonas aeruginosa; settings: efflux − (MB9799) strain; imipenem at 2 μg/mL; in the presence of a class A, C, D serine β-lactamase inhibitor closely related to relebactam
Source text: (§1) The strain background is Pseudomonas aeruginosa PAO1. A wild-type (M135919) and an isogenic strain in which multiple efflux pumps have been disrupted genetically were used. The MBL IMP-1, obtained from a clinical isolate was introduced into the strain pair by the following process:
(§2) The plasmid DNA was transformed into parental MB5919 (oprD+, efflux+, inducible AmpC) and MB5890 (oprD+, efflux−, inducible AmpC) isogenic strains by electroporation.
(§3) The strain set was then used as a pair to determine the effect of metallo-β-lactamase inhibitors of Formula I on the MIC of imipenem and/or ceftazidime. A fixed concentration of antibiotic is included in standard microbroth MIC tests, usually at the CLSI breakpoint concentration, A fixed amount of a class A/C beta-lactamase inhibitor is also included to inhibit the resident Pseudomonas AmpC enzyme. A serial titration of the metallo-β-lactamase inhibitor was included and the concentration of metallo-β-lactamase inhibitor which restores susceptibility of the strain to the included antibiotic was recorded. That concentration of metallo-β-lactamase inhibitor was then compared between the two strains to determine the fold difference between the efflux+(MB9798) and efflux−(MI39799) strains, which indicates the extent to which the MBLi is subject to efflux.

[2] = tested on: P. aeruginosa MB9798 (efflux+, IMP-1 plasmid); settings: for MB9798 MITC95 P. aeruginosa uM Efflux WT: efflux + (MB9798) strain, imipenem at 2 μg/mL, in the presence of a class A, C, D serine β-lactamase inhibitor closely related to relebactam; for Efflux ratio: fold difference between efflux+ (MB9798) and efflux− (MB9799) strains
Source text: as §1, §2, §3

[3] = tested on: Klebsiella pneumoniae expressing VIM-1 (IHMA599644); type: cell-based; settings: with imipenem 1 μg/ml; 95% inhibition of bacterial growth
Method: (§4) The bacterial strains tested included the clinical strains Escherichia coil expressing NDM-1 (CLB30005, CLB30016), Serratia marcescens expressing IMP-1 (CL5741), and Klebsiella pneumoniae expressing VIM-1 (H-LMA599644). Inhibitor activity was measured in the presence and absence of imipenem in a 384-well microplate.
(§5) The clinical strains CLB30016, CL5741 and IHMA599644 were grown on trypticase soy agar containing 5% sheep's blood. The bacteria on agar plates were incubated at 35° C. with humidity overnight. The following day, individual colonies from each clinical strain were picked and resuspended in 5 ml saline to attain an OD600 of […], for CLB30016, C15741 and IHMA599644, respectively. These were further diluted 1:100 into 1.1× CAMHB and used to inoculate the test wells as described below.
(§6) Imipenem in 10 mM 3-(N-morpholino)propanesulfonic acid (MOPS, pH 7) was stored in single use aliquots at −80° C. […] On the day of the assay, 4 μl of antibiotic was added to 45 μl of bacteria followed by 1 μl of test compound and mixed by pipetting and with an orbital shaker. The concentration of antibiotic used in the assay was 1 μg/ml. Microplates were covered and incubated at 35° C. for 22 hours to 24 hours. At the end of the incubation, absorbance was determined using a spectrophotometer. The synergistic concentration of MBLI was determined by identifying the lowest concentration of test compound in the presence of a given concentration of antibiotic that was required to inhibit 95% of the growth of the bacteria. The results for Examples 1-209 are reported in Table 1, expressed as the concentration of compound that potentiated the action of antibiotic (imipenem) affecting 95% inhibition of bacterial growth (MITC95).

[4] = tested on: Escherichia coli expressing NDM-1 (CLB30016); type: cell-based; settings: with imipenem 1 μg/ml; 95% inhibition of bacterial growth
Method: as §4, §5, §6

[5] = tested on: Serratia marcescens expressing IMP-1 (CL5741); type: cell-based; settings: with imipenem 1 μg/ml; 95% inhibition of bacterial growth
Method: as §4, §5, §6

[6] = biological target: NDM-1 (Klebsiella pneumoniae, UniProt C7C422); assay: biochemical; type: biochemical; settings: CCF2-FA fluorescence assay, 2 hours at 25° C.
NDM-1, sequence (C7C422 whole entry, looked up, species assumed): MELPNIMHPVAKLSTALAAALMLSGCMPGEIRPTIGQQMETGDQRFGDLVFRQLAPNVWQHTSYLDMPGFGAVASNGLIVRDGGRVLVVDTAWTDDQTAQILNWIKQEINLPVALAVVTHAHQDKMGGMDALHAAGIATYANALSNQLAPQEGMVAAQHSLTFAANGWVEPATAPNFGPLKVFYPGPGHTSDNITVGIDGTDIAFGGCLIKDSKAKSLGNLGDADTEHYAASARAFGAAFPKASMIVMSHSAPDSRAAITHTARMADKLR
Method: (§7) The Class B enzyme activities were measured in the presence of the test inhibitor in a fluorescence assay against a commercially available substrate consisting of a cephalosporin core linking 7-hydroxycoumarin to fluorescein (CCF2-FA). The enzyme (NDM-1, IMP-1 or VIM-1) and the substrate were diluted in 100 mM KH2PO4 buffer (pH 7) containing 0.005% Tween-20 and 10 μM ZnSO4. In the assay, the final concentration of enzyme was 1 pM, 2 pM and 30 pM for NDM-1, IMP-1 and VIM-1, respectively, and the final concentration of CCF2-FA was 1.25 μM. The test inhibitor was dissolved in dimethylsulfoxide and diluted 1:50 in the assay, resulting in a final concentration range of 20 μM to 0.00063 μM. In a 384-well microplate, the test inhibitor was incubated with the metallo-β-lactamase enzyme and the substrate for 2 hours at 25° C. Fluorescence at 460 nm following excitation at 405 nm was measured. The IC50 value was determined from semi-logarithmic plots of enzyme inhibition versus inhibitor concentration, with a curve generated using a 4-parameter fit.

[7] = biological target: IMP-1 (Serratia marcescens, UniProt P52699); assay: biochemical; settings: CCF2-FA fluorescence assay, 2 hours at 25° C.; read-out: IMP1 IC50
IMP-1, sequence (P52699 whole entry, looked up, species assumed): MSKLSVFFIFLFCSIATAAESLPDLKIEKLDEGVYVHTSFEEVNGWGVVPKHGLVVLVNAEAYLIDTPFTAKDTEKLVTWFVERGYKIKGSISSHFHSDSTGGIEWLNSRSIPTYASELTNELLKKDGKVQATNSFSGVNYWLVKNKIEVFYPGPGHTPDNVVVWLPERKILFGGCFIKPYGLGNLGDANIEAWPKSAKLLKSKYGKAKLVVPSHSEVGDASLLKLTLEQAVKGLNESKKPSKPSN
Method: as §7

[8] = biological target: VIM-1 (Pseudomonas aeruginosa (strain ATCC 15692 / DSM 22644 / CIP 104116 / JCM 14847 / LMG 12228 / 1C / PRS 101 / PAO1), UniProt A0A0F7KYQ8); assay: biochemical; settings: CCF2-FA fluorescence assay, 2 hours at 25° C.; read-out: VIM1 IC50
Method: as §7

[9] = biological target: VIM-2 (Escherichia coli, UniProt Q5U7L7); assay: biochemical; settings: CCF2-FA fluorescence assay; read-out: VIM2 IC50

Row | SMILES | MB9799 MITC95 P. aeruginosa uM Efflux Mutant [1] | MB9798 MITC95 P. aeruginosa uM Efflux WT [2] | Efflux ratio [2] | IHMA599644 K. pneumoniae MITC95 VIM [3] | CLB30016 E. coli MITC95 NDM [4] | CL5741 S. marcescens MITC95 IMP [5] | IC50 [6] | IC50 [7] | IC50 [8] | IC50 [9]
1 | NS(=O)(=O)c1ccc(N2CCC3(CCNCC3)C2=O)c(-c2nn[nH]n2)c1S(N)(=O)=O [Example 134, 4-(1-oxo-2,8-diazaspiro[4.5]decan-2-yl)-3-(2H-tetrazol-5-yl)benzene-1,2-disulfonamide] | 6.25 µM | 50.00 µM | 8.00 | 6.25 µM | 6.25 µM | 12.50 µM | 182 nM | 480 nM | 62.9 nM | –
2 | NC1CCCCN(c2ccc(S(=O)(=O)C3CNC3)c(S(N)(=O)=O)c2-c2nnn[nH]2)C1 (stereo not drawn) [Example 33, 3-(3-aminoazepan-1-yl)-6-(azetidin-3-ylsulfonyl)-2-(1H-tetrazol-5-yl)benzenesulfonamide] | 3.13 µM | 25.00 µM | 8.00 | 0.78 µM | 1.56 µM | 3.13 µM | 110 nM | 137 nM | 4.43 nM | –
3 | NS(=O)(=O)c1c(S(=O)(=O)C2CNC2)ccc(N2CCC3(CCNCC3)CC2)c1-c1nnn[nH]1 [Example 30, 6-(azetidin-3-ylsulfonyl)-3-(3,9-diazaspiro[5.5]undecan-3-yl)-2-(1H-tetrazol-5-yl)benzenesulfonamide] | 0.78 µM | 1.56 µM | 2.00 | 1.56 µM | 0.78 µM | 1.56 µM | 2.62 nM | 5.2 nM | 2.01 nM | –
4 | NC[C@@H](O)CNS(=O)(=O)c1ccc(N2CCC3(CC2)CNC(=O)OC3)c(-c2nn[nH]n2)c1S(N)(=O)=O [Example 26, (R)-N^1-(3-amino-2-hydroxypropyl)-4-(3-oxo-2-oxa-4,9-diazaspiro[5.5]undecan-9-yl)-3-(2H-tetrazol-5-yl)benzene-1,2-disulfonamide] | 3.13 µM | 6.25 µM | 2.00 | 12.50 µM | 12.50 µM | 6.25 µM | – | 1.02 nM | 0.63 nM | 2.74 nM
5 | NCCS(=O)(=O)c1ccc(N2CCOCC2)c(-c2nnn[nH]2)c1S(N)(=O)=O [Example 15] | 1.56 µM | 12.50 µM | 8.00 | 3.13 µM | 1.56 µM | 3.13 µM | 11.5 nM | 6.5 nM | 2.51 nM | –
6 | NCCS(=O)(=O)c1ccc(N2CCCCC2)c(-c2nnn[nH]2)c1S(N)(=O)=O [Example 14] | 0.78 µM | 12.50 µM | 16.00 | 2.34 µM | 0.78 µM | 2.34 µM | 3.94 nM | 1.34 nM | 0.73 nM | –
7 | N[C@H]1CCCN(c2ccc(S(=O)(=O)C3CNC3)c(S(N)(=O)=O)c2-c2nnn[nH]2)C1 [Example 29, (S)-3-(3-aminopiperidin-1-yl)-6-(azetidin-3-ylsulfonyl)-2-(1H-tetrazol-5-yl)benzenesulfonamide] | 3.13 µM | 25.00 µM | 8.00 | 0.78 µM | 1.56 µM | 6.25 µM | 86 nM | 229 nM | 9.45 nM | –
8 | N[C@@H]1CCCN(c2ccc(S(=O)(=O)C3CNC3)c(S(N)(=O)=O)c2-c2nnn[nH]2)C1 [Example 28, (R)-3-(3-aminopiperidin-1-yl)-6-(azetidin-3-ylsulfonyl)-2-(1H-tetrazol-5-yl)benzenesulfonamide] | 6.25 µM | 50.00 µM | 8.00 | 1.56 µM | 0.78 µM | 6.25 µM | 61.9 nM | 463 nM | 37.2 nM | –
9 | NC1CCCN(c2ccc(S(=O)(=O)C3CNC3)c(S(N)(=O)=O)c2-c2nnn[nH]2)CC1 (stereo not drawn) [Example 32, 3-(4-aminoazepan-1-yl)-6-(azetidin-3-ylsulfonyl)-2-(1H-tetrazol-5-yl)benzenesulfonamide] | 3.13 µM | 12.50 µM | 4.00 | 1.56 µM | 6.25 µM | 3.13 µM | 122 nM | 191 nM | 2.14 nM | –
